Experiments:
[1] = biological target: T1, DDB1DB/DCAF15 and RBM39 R1R2 complex (Homo sapiens, UniProt Q14498+Q66K64); test: DCAF15 RBM39 Complex Formation Assay (FRET); format: binding; conditions: FRET ratio Em 665/Em 615, incubated overnight at 4° C.
T1 construct: Amino acids 150 to 331 of RBM39 were cloned into pGEX4T3; GST (from vector pGEX4T3); TEV cleavage site (N); made in house; host or cells: DDB1DB/His-DCAF15: baculovirus/Sf9 co-expression; RBM39 R1R2: E. coli (pGEX4T3)
In short: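 Ternary complex formation read by TR-FRET (Em 665/615, excitation 340 nm) after overnight incubation at 4° C of 20 nM baculovirus DDB1DB/His-DCAF15 and 50 nM E. coli RBM39 RRM1-RRM2 FLAG fragment with 14-point, 3-fold compound dilutions from 1 μM; EC50 from 4-parameter fit.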

[2] = tested on: HCT116 human colorectal carcinoma cells; test: CellTiter-Glo Luminescent Cell Viability Assay; format: cell-based; conditions: HCT-116, 72 h, 3 days
In short: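 HCT116 cells were exposed for 3 days to compound in triplicate at final concentrations of 5 to 0.0002 […] (1:3 dilutions). Viability was read by CellTiter-Glo luminescence, and IC50 values were calculated.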

T1 sequence (Q66K64 whole entry, the tested form may be a part): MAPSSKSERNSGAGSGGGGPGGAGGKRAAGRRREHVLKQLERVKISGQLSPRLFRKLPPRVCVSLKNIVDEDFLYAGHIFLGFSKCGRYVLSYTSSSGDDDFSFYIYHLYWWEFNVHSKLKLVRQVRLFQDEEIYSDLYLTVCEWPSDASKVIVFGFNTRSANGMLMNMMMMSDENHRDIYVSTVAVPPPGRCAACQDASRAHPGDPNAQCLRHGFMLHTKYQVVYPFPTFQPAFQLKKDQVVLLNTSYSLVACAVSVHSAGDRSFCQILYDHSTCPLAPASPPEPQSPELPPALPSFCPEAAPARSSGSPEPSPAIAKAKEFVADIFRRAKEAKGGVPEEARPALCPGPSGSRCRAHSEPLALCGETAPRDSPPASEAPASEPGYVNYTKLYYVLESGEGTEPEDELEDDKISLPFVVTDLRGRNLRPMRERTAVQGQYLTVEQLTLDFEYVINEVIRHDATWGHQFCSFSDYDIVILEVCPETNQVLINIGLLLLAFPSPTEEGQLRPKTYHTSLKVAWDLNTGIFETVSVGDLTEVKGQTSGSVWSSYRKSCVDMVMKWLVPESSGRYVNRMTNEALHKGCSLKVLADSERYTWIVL
T1 sequence (Q14498 150-331): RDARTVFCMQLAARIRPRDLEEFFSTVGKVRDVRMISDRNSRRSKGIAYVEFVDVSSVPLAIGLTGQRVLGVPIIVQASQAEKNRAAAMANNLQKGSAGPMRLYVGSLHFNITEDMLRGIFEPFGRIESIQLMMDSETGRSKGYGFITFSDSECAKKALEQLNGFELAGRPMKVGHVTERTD
T1 sequence (Q16531 with tags, fused parts or gaps DEL396-708 partner): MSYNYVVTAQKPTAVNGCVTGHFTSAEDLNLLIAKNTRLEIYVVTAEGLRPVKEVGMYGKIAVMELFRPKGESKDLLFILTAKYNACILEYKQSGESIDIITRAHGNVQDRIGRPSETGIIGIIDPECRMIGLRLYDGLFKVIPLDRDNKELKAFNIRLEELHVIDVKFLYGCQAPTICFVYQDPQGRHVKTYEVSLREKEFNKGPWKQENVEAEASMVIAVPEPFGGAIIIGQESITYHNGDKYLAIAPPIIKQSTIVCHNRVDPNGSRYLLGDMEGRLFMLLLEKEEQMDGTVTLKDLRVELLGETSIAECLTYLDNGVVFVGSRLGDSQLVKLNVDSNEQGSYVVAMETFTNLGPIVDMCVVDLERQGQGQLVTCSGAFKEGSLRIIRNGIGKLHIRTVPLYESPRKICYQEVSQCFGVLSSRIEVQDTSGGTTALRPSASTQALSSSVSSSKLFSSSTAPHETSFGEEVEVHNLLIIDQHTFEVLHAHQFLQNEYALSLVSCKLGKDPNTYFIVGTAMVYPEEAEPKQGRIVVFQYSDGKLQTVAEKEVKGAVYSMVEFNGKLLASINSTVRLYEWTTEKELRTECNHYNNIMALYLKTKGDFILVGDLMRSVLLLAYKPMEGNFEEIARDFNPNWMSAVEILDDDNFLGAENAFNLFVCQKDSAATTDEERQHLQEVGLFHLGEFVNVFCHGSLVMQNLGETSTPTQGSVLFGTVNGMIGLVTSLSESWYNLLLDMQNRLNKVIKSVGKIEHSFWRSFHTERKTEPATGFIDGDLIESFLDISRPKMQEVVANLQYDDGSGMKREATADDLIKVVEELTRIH

Compound | IC50 [1] [nM] | EC50 [2] [nM]
N#Cc1c[nH]c2c(NS(=O)(=O)c3cnn([C@@H](CO)C(F)F)c3)ccc(F)c12 [Compound 228, N-(3-cyano-4-fluoro-1H-indol-7-yl)-1-[(1S)-2,2-difluoro-1-(hydroxymethyl)ethyl]pyrazole-4-sulfonamide] | < 250 | > 1000
Cc1ccc(NS(=O)(=O)c2cnn(C(C)(C)CCO)c2)c2[nH]cc(C#N)c12 [Compound 229, N-(3-cyano-4-methyl-1H-indol-7-yl)-1-(4-hydroxy-2-methylbutan-2-yl)-1H-pyrazole-4-sulfonamide] | < 250 | < 250
CC(C)(CCO)n1cc(S(=O)(=O)Nc2ccc(Cl)c3c(C#N)c[nH]c23)cn1 [Compound 230, N-(4-chloro-3-cyano-1H-indol-7-yl)-1-(3-hydroxy-1,1-dimethyl-propyl)pyrazole-4-sulfonamide] | < 250 | < 250
Cc1ccc(NS(=O)(=O)c2cnn(C(C)(C)CC(C)(C)O)c2)c2[nH]cc(C#N)c12 [Compound 231, N-(3-cyano-4-methyl-1H-indol-7-yl)-1-(3-hydroxy-1,1,3-trimethyl-butyl)pyrazole-4-sulfonamide] | < 250 | < 250
C[C@@H](O)[C@H](C)n1cc(S(=O)(=O)Nc2ccc(Cl)c3c(C#N)c[nH]c23)cn1 [Compound 232, N-(4-chloro-3-cyano-1H-indol-7-yl)-1-[(1S,2R)-2-hydroxy-1-methyl-propyl]pyrazole-4-sulfonamide] | < 250 | 250 to 1000
C[C@@H](O)[C@H](C)n1cc(S(=O)(=O)Nc2ccc(F)c3c(C#N)c[nH]c23)cn1 [Compound 233, N-(3-cyano-4-fluoro-1H-indol-7-yl)-1-[(1S,2R)-2-hydroxy-1-methyl-propyl]pyrazole-4-sulfonamide] | < 250 | 250 to 1000
CC(C)(CO)n1cc(S(=O)(=O)Nc2cccc3c(C#N)c[nH]c23)cn1 [Compound 235, N-(3-cyano-1H-indol-7-yl)-1-(2-hydroxy-1,1-dimethyl-ethyl)pyrazole-4-sulfonamide] | < 250 | 250 to 1000
CC(CCO)n1cc(S(=O)(=O)Nc2ccc(Cl)c3c(C#N)c[nH]c23)cn1 (centres unmarked) [Compound 237, N-(4-chloro-3-cyano-1H-indol-7-yl)-1-(3-hydroxy-1-methyl-propyl)pyrazole-4-sulfonamide] | < 250 | < 250
Cc1ccc(NS(=O)(=O)c2cnn(C)c2CCO)c2[nH]cc(C#N)c12 [Compound 239, N-(3-cyano-4-methyl-1H-indol-7-yl)-5-(2-hydroxyethyl)-1-methyl-pyrazole-4-sulfonamide] | < 250 | > 1000
CC(C)(C(N)=O)n1cc(S(=O)(=O)Nc2ccc(F)c3c(C#N)c[nH]c23)cn1 [Compound 240, 2-[4-[(3-cyano-4-fluoro-1H-indol-7-yl)sulfamoyl]pyrazol-1-yl]-2-methyl-propanamide] | < 250 | > 1000
Cc1ccc(NS(=O)(=O)c2cnn(C(C)(C)C(N)=O)c2)c2[nH]cc(C#N)c12 [Compound 241, 2-[4-[(3-cyano-4-methyl-1H-indol-7-yl)sulfamoyl]pyrazol-1-yl]-2-methyl-propanamide] | < 250 | 250 to 1000
CC(CC(C)(C)O)n1cc(S(=O)(=O)Nc2ccc(Cl)c3c(C#N)c[nH]c23)cn1 (centres unmarked) [Compound 243, N-(4-chloro-3-cyano-1H-indol-7-yl)-1-(3-hydroxy-1,3-dimethyl-butyl)pyrazole-4-sulfonamide] | < 250 | 250 to 1000
Cc1ccc(NS(=O)(=O)c2cnn(C(C)(C)CO)c2Cl)c2[nH]cc(C#N)c12 [Compound 244, 5-chloro-N-(3-cyano-4-methyl-1H-indol-7-yl)-1-(2-hydroxy-1,1-dimethyl-ethyl)pyrazole-4-sulfonamide] | < 250 | < 250
CC(C)(CO)n1ncc(S(=O)(=O)Nc2ccc(F)c3c(C#N)c[nH]c23)c1Cl [Compound 245, 5-chloro-N-(3-cyano-4-fluoro-1H-indol-7-yl)-1-(2-hydroxy-1,1-dimethyl-ethyl)pyrazole-4-sulfonamide] | < 250 | 250 to 1000
N#Cc1c[nH]c2c(NS(=O)(=O)c3cnn(C[C@H](N)C(F)(F)F)c3)ccc(Cl)c12 [Compound 248, 1-[(2S)-2-amino-3,3,3-trifluoro-propyl]-N-(4-chloro-3-cyano-1H-indol-7-yl)pyrazole-4-sulfonamide] | < 250 | 250 to 1000
Cc1ccc(NS(=O)(=O)c2cnn(C[C@H](N)C(F)(F)F)c2)c2[nH]cc(C#N)c12 [Compound 249, 1-[(2S)-2-amino-3,3,3-trifluoro-propyl]-N-(3-cyano-4-methyl-1H-indol-7-yl)pyrazole-4-sulfonamide] | < 250 | 250 to 1000

Further lines, results first:

IC50 [1] [nM] | EC50 [2] [nM] | Compound
< 250 | 250 to 1000 | C[C@H](CF)n1cc(S(=O)(=O)Nc2ccc(F)c3c(C#N)c[nH]c23)cn1 [Compound 225, N-(3-cyano-4-fluoro-1H-indol-7-yl)-1-[(1R)-2-fluoro-1-methyl-ethyl]pyrazole-4-sulfonamide]
< 250 | 250 to 1000 | N#Cc1c[nH]c2c(NS(=O)(=O)c3cnn([C@@H](CO)C(F)F)c3)ccc(Cl)c12 [Compound 226, N-(4-chloro-3-cyano-1H-indol-7-yl)-1-[(1S)-2,2-difluoro-1-(hydroxymethyl)ethyl]pyrazole-4-sulfonamide]
< 250 | 250 to 1000 | Cc1ccc(NS(=O)(=O)c2cnn([C@@H](CO)C(F)F)c2)c2[nH]cc(C#N)c12 [Compound 227, N-(3-cyano-4-methyl-1H-indol-7-yl)-1-[(1S)-2,2-difluoro-1-(hydroxymethyl)ethyl]pyrazole-4-sulfonamide]
< 250 | < 250 | Cc1ccc(NS(=O)(=O)c2cnn([C@@H](C)[C@@H](C)O)c2)c2[nH]cc(C#N)c12 [Compound 234, N-(3-cyano-4-methyl-1H-indol-7-yl)-1-[(1S,2R)-2-hydroxy-1-methyl-propyl]pyrazole-4-sulfonamide]
< 250 | < 250 | Cc1ccc(NS(=O)(=O)c2cnn(C(C)CCO)c2)c2[nH]cc(C#N)c12 (centres unmarked) [Compound 236, N-(3-cyano-4-methyl-1H-indol-7-yl)-1-(3-hydroxy-1-methyl-propyl)pyrazole-4-sulfonamide]
< 250 | 250 to 1000 | N#Cc1c[nH]c2c(NS(=O)(=O)c3cnn([C@@H](CO)CF)c3)ccc(Cl)c12 [Compound 238, N-(4-chloro-3-cyano-1H-indol-7-yl)-1-[(1S)-1-(fluoromethyl)-2-hydroxy-ethyl]pyrazole-4-sulfonamide]
< 250 | < 250 | Cc1ccc(NS(=O)(=O)c2cnn(C(C)CC(C)(C)O)c2)c2[nH]cc(C#N)c12 (centres unmarked) [Compound 242, N-(3-cyano-4-methyl-1H-indol-7-yl)-1-(3-hydroxy-1,3-dimethyl-butyl)pyrazole-4-sulfonamide]
< 250 | 250 to 1000 | Cc1ccc(NS(=O)(=O)c2cnn([C@@H](CO)CF)c2)c2[nH]cc(C#N)c12 [Compound 246, N-(3-cyano-4-methyl-1H-indol-7-yl)-1-[(1S)-1-(fluoromethyl)-2-hydroxy-ethyl]pyrazole-4-sulfonamide]
< 250 | > 1000 | N#Cc1c[nH]c2c(NS(=O)(=O)c3cnn([C@@H](CO)CF)c3)ccc(F)c12 [Compound 247]

Source: patent publication US20250368627A1, “PYRAZOLESULFONAMIDES AS ANTITUMOR AGENTS” (Peloton Therapeutics, Inc., a fully owned subsidiary of …, priority 2019, published 2025)
